Reference: article PMC9326216, “Treatment of Cardiovascular Dysfunction with PDE3-Inhibitors in Moderate and Severe Hypothermia—Effects on Cellular Elimination of Cyclic Adenosine Monophosphate and Cyclic Guanosine Monophosphate” (Frontiers in Physiology, 2022)

Columns and labels:
[1] = target: T1, ABCC4 (Homo sapiens, UniProt O15439); assay: biochemical; type: biochemical; details: cAMP-efflux, inside-out vesicles; for IC50: 20 µM 3H-cAMP, 60 min; for Ki: ABCC4 Ki
T1 sequence (O15439 1-1325): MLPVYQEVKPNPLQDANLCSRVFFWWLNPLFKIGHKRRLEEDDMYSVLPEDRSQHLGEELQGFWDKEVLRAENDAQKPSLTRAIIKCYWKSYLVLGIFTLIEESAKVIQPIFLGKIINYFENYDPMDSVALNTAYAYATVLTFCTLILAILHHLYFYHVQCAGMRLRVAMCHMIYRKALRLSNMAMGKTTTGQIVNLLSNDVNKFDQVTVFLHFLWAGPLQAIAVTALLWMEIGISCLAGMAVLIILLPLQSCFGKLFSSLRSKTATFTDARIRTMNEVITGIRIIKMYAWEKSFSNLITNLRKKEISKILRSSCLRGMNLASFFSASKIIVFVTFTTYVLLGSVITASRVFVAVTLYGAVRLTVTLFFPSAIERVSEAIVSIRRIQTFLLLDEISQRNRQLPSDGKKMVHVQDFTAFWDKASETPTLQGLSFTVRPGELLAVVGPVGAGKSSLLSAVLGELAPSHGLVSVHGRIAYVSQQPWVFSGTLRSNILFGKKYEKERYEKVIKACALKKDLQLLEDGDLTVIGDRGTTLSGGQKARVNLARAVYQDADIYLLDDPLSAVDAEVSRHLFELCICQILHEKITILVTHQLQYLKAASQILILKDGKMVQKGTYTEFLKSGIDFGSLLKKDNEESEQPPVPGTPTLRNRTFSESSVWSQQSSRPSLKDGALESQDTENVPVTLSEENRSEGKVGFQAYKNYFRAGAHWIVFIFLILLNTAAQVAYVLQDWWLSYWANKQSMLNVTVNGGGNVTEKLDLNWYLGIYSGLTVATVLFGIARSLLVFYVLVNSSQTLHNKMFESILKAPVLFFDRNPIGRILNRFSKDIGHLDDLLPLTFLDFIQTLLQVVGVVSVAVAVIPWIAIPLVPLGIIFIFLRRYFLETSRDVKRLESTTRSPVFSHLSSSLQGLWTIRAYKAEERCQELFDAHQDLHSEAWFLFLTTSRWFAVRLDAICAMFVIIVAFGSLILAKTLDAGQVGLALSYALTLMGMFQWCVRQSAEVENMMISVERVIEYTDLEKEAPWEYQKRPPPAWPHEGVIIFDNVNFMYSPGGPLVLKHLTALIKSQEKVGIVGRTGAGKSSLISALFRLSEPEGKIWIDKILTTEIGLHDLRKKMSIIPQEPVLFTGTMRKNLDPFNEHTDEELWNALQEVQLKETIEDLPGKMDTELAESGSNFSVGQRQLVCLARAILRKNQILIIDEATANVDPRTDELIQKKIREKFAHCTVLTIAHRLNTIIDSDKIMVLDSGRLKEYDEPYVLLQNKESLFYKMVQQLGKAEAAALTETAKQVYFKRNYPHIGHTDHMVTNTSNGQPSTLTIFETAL
Protocol: Freshly collected EDTA blood from healthy donors (n = 35) was prepared at 0°C–4°C, starting by separating the erythrocytes from plasma by centrifugation at 2,300 g for approximately 15 min. […] Lysis followed thereafter, with ten volumes of 5 mM Tris-HCl, 0.5 mM EGTA, 4 mM KCl (pH 8.1) and washed by repeated centrifugation at 20,000 g for 20 min and resuspension in the same buffer. Vesiculation was initiated by adding 39 volumes of a […] buffer ([…] Tris-HCl, pH 8.2) to one volume of cell suspension and completed by forcing the solution five times through a 27-gauge syringe needle to promote homogenization of the membranes. […] The resulting IOVs, which still contained ABC-transporters in the membrane, enabled us to control the intracellular environment, in this case the surrounding medium, and collect the cyclic nucleotides within. […] Radioactive labeled (^3H)-cAMP or (^3H)-cGMP (Perkin Elmer, Boston, MA, United States) were added to the incubation solutions in the concentration 20 and 2 μM, respectively, depending on the transporter examined, together with the appointed study drug in concentrations up to 1 mM. […] Next step was to collect the IOVs, which was done by filtration through a nitrocellulose membrane (Bio-Rad Laboratories, Feldkirchen, Germany), and then drying it. The resulting collection of radioactivity upon the filter, was later quantified by using a Packard TopCount NXT (Packard, Downers Grove, IL, United states) after adding scintillation fluid (MicroScint-O, PerkinElmer, Groningen, Netherlands).
IC50 and Ki values were calculated for each of the drugs, both for their ability to inhibit cAMP- and cGMP- efflux, as well as PDE3 and PDE5 activity. […] Inhibition curves were created accordingly, both with and without adjustment for normothermic control.

[2] = test system: erythrocytes; assay: Intracellular access of the drugs in erythrocytes (LC-MS); type: in vitro ADME, human; details: 30 min incubation, milrinone 10 µM, amrinone 100 µM, levosimendan 1 µM
Protocol: Fresh (<24 h) EDTA blood from healthy donors (n = 18) was obtained and washed with Krebs-Ringer-Phosphate-Buffer containing glucose (KRPB/G, pH 7.4) and centrifuged (10 min, 1,000 g) three consecutive times. Plasma and buffy coat were removed. KRPB/G was added to the cell solution to bring it to the ratio 1:2.5. Hematocrit (Hct) was measured and adjusted with additional buffer to reach 0.44, in order to give the final Hct of 0.40 in the incubation solution. […] The reaction was stopped by placing the test tubes on ice and adding 4 ml of ice cold KRFB/G. The samples were subsequently centrifugated (5 min, 600 g), then washed with KRFB/G once more and centrifugation was repeated twice. 50 µl of the remaining red blood cell suspension was transferred to Eppendorf tubes. 50 µl 500 nM IS-Milrinone-d3 was added as an internal standard (TLC Pharmaceutical Standards Ltd.). 200 µl ZnSO4 was added to each test sample, to induce lysis of the cells, and mixed in a vortex mixer. 30 µl of the samples were used for measurement of protein concentration, the rest was mixed with 500 µl acetonitrile and centrifugated (2 min, 13400 g). Finally, 100 µl of the solution was collected for analysis using mass spectrometry (MS).
Liquid chromatography tandem mass spectrometry (LC-MS) was used to assess concentrations of the inhibitors for experiments performed to determine intracellular access of these drugs, as well as to quantify levels of cAMP/AMP and cGMP/GMP for the PDE3-and PDE5-inhibition plots. Internal standards were used, as described previously. There was a linearity from 0.2 nM to at least 2000 nM (r^2 > 0.998) for cAMP, AMP, and cGMP. For GMP, linearity was present from 2 nM to at least 2000 nM (r^2 > 0.998). Concerning PDE3-inhibitors, the linearity was found at 10 nM to at least 5,000 nM (r^2 > 0.99). Lower limit of quantification (LLOQ) was 0.2 for cAMP, cGMP, and AMP, 2 nM for GMP and 10 nM for PDE3-inhibitors (2 µl injection volume).
Intracellular concentrations of drugs were adjusted for protein concentrations in each sample. The total incubation concentrations were also adjusted for protein concentrations to evaluate the degree of access in percentage. Statistical analysis was performed using one-way ANOVA with Holm-Sidak multiple comparisons post hoc test at each temperature. ANOVA on ranks with Dunn post hoc test was used when the results were not normally distributed. The results are presented as means ± standard error of mean (SEM). p-values < 0.05 were considered significant results. Degrees of freedom (dF) is given as between group values. SigmaPlot 14.0 (Systat Software, San Jose, CA, United States) was used for all analysis, as well as creating the graphs.

Cc1[nH]c(=O)c(C#N)cc1-c1ccncc1 [Milrinone]
IC50 ([1]; ABCC4 IC50, 28°C): 37.4 ± 24.5 µM | IC50 ([1]; ABCC4 IC50, 32°C): 32.9 ± 14.6 µM | IC50 ([1]; ABCC4 IC50, 34°C): 67 ± 22.6 µM | IC50 ([1]; ABCC4 IC50, 37°C): 58.9 ± 13.1 µM | Ki ([1]; 28°C): 22.7 ± 14.9 µM | Ki ([1]; 32°C): 20 ± 8.86 µM | Ki ([1]; 34°C): 40.6 ± 13.7 µM | Ki ([1]; 37°C): 35.7 ± 7.94 µM | Intracellular access, % of drug concentration per gram protein in the incubation solution ([2]; 28°C): 15.06 ± 0.544% | Intracellular access, % of drug concentration per gram protein in the incubation solution ([2]; 34°C): 11.41 ± 1.675%
